Laboratory results reported in patent US20240269227A1, “CALCIUM-SENSING RECEPTOR AGONIST COMPOSITION AND APPLICATION THEREOF” (Beijing Tuo Jie Biopharmaceutical Co. Ltd., priority 2021, published 2024).
Where a SMILES comes first, the peptide text is derived from it. [ ]: non-standard residue; d: D form. The star is where a group is joined. Cys(free,S-linked) = N[C@@H](CS*)C(=O)O; dAbu = CC[C@@H](N)C(=O)O

What was measured:
[1] = tested on: rat peritoneal mast cells; experiment: In vitro histamine release in rat peritoneal mast cells; format: cell-based; details: final concentration 10 μM
Method: To evaluate the in vitro histamine release levels induced by some of the test example compounds, rat peritoneal mast cells were collected by lavaging rat peritoneum with a lavage buffer (cold HBSS+25 mM HEPES containing heparin 5 U/mL, pH 7.4). After collection, the cells were centrifuged, and the lavage buffer was discarded. The cells were resuspended and washed twice with a stimulation buffer (HBSS+25 mM HEPES+1 mM CaCl2), pH 7.4). The cells were plated at a density of 10^5 cell/well (200 μL/well) and incubated at 37° C. for 15 min with positive control compound 48/80 (final concentration: 4 μg/mL), test example compound (final concentration: 10 μM) or vehicle control. The cells were centrifuged, and cell supernatant was collected and tested for histamine concentration according to LDN Histamine ELISA kit (BAE-1000) instructions.

[2] = tested on: normal rats; experiment: In vivo efficacy in a normal rat model after a single dose; design: species or system rat (Sprague Dawley); details: 3 mg/kg intravenous
Method: SPF normal adult rats (Sprague Dawley, or SD) with weight of 250-350 g were fed with normal diet in an animal room for 7 days. Rats were randomized into groups of 6, half female and half male, and numbered. The day before the start of the experiment, 540 μL of blood was collected from each rat, and the plasma parathyroid hormone levels and the serum calcium ion concentration were measured as control values before administration. […] The plasma parathyroid hormone levels were measured using the Rat Intact PTH ELISA Kit (Quidel—Immunotopics, Cat. #: 60-2500; ELISA: Enzyme-linked immunosorbent assay) according to the kit instructions. […] The absorbance at 450 nm in each well was detected within 10 min after the addition of the ELISA terminating solution, while the absorbance at 620 nm was subtracted as background. A mixture of horseradish peroxidase ELISA substrate 150 μL and ELISA terminating solution 100 μL was used as the blank control in the absorbance detection. A standard curve according to the absorbance of the reference standard was plotted, and the actual plasma parathyroid hormone concentration was calculated according to the absorbance of other samples and the standard curve. […]

[3] = tested on: human red blood cells; experiment: Hemolytic effect on human red blood cells in vitro; details: compound of formula (I) at 100 μg/mL; 37° C. for 1 h; absorbance at 540 nm; FIG. 1

Compound	histamine release levels in rat peritoneal mast cells in vitro relative to the etelcalcetide [1]	Relative fold of histamine release in vitro ([1]; 37° C. 15 min, relative to PBS buffer)	serum calcium ion levels ([2]; FIG. 3)	plasma parathyroid hormone levels ([2]; within 4 h, FIG. 2)	hemolytic effect on red blood cells [3]
CC[C@@H](NC(=O)[C@@H](CCCNC(=N)N)NC(=O)[C@@H](CCCNC(=N)N)NC(=O)[C@@H](CSSC[C@H](N)C(=O)O)NC(C)=O)C(=O)N[C@H](CCCNC(=N)N)C(=O)N[C@H](C)C(=O)N[C@H](CCCNC(=N)N)C(N)=O [Compound of formula (I), Ac-c(C)-r-r-(D-Abu)-r-a-r-NH2] (Ac-[dC](Cys(free,S-linked))[dR][dR][dAbu][dR][dA][dR]-NH2)	greatly reduced	0.97	correspondingly reduced	completely reduced	
polyethylene glycol octyl phenyl ether					significant hemolytic effect
